A short description of the data set: passive permeability, PAMPA, ADME assay (AID 1508612). Conditions: pH 7.4, 30.0 min, 50.0 µM.

`COc1ccc(C(=O)N2CCCC(c3nn(-c4ccc(OC)cc4)c(=O)[nH]3)C2)cc1` (stereo not given) gave an apparent permeability coefficient (Papp) of 599 ×10⁻⁶ cm/s. Under `Cc1c(CN(C)c2cc(C3CC(O)C3)nc(N)n2)[nH]c2ccccc12` (stereo not given) stands below 1 ×10⁻⁶ cm/s. Under `CC(C)(C)c1ccc(-c2nc(SCCCOc3ccccc3)n3[nH]c(=O)cc3n2)cc1` stands 10.1 ×10⁻⁶ cm/s; under `Cc1ccc(S(=O)(=O)Nc2cnccc2C(=O)Nc2nc(C3CCC3)cs2)cc1`, 497 ×10⁻⁶ cm/s. Consider `O=C(O)Cn1c(C(=O)Nc2nc(-c3ccccc3Cl)cs2)cc2ccccc21`, for which the Papp turned out to be 21.5 ×10⁻⁶ cm/s. Under `CNC(=O)c1ccc(C)c(-n2c(C)cc(OCc3ccc(F)cc3F)c(Br)c2=O)c1` stands 695 ×10⁻⁶ cm/s; under `COc1ccc(-c2nc(N3CCOCC3)c3sc(CN(C)c4ncc(C(=O)NO)cn4)cc3n2)cn1`, 496 ×10⁻⁶ cm/s. With `O=C(O)c1ccc(Nc2nc(-c3cc4ccccc4oc3=O)cs2)cc1O`, the Papp is 8.62 ×10⁻⁶ cm/s. This Papp lies about 58-fold lower than the previous one. On to `C[C@@]1(c2ncncc2F)NC(=O)c2cc(-c3cn[nH]c3)ccc21`, for which the Papp was 52.1 ×10⁻⁶ cm/s. Compound `CCc1ccc(-n2nnc(-c3nsc(NC(=O)c4ccccc4Cl)n3)c2C)cc1` registered a Papp of 615 ×10⁻⁶ cm/s. This Papp lies about 12-fold higher than the previous one. Under `CNc1oc(-c2ccccc2-c2ccccc2)nc1C#N` stands 906 ×10⁻⁶ cm/s. As to `Cc1ccc(-c2cc(C(=O)Nc3ccc(S(=O)(=O)Nc4ccc(C#N)cc4)cc3)c3ccccc3n2)cc1C`, the apparent permeability coefficient (Papp) is below 1 ×10⁻⁶ cm/s. Under `Cc1ccccc1S(=O)(=O)N1CCCC(CCC(=O)NCCN(C)C2CCCCC2)C1` (stereo not given) stands above 1000 ×10⁻⁶ cm/s; under `C[C@@]1(O)[C@H](O)[C@@H](CO)O[C@H]1n1ccc(N)nc1=O`, 9.97 ×10⁻⁶ cm/s. The compound `COc1ccc(OCc2ccc(-c3nc(C#N)c(NC(C)c4ccccc4)o3)o2)cc1` (stereo not given) returned a Papp of 20.9 ×10⁻⁶ cm/s. For the compound `CC[C@H](NC(=O)c1c(O)c(-c2ccccc2)nc2ccccc12)c1ccccc1`, the Papp worked out at 298 ×10⁻⁶ cm/s. For the compound `CN(C)c1cccc(-c2cnc(N3CCC(C(N)=O)CC3)nc2)c1`, the apparent permeability coefficient (Papp) was found to be 273 ×10⁻⁶ cm/s. Under `COC(=O)c1ccnc(-c2cc(C(=O)Nc3ccc(C4(N)CC4)cc3)ccn2)c1` stands above 1000 ×10⁻⁶ cm/s; under `Cc1onc(-c2ccc(F)cc2)c1COc1ccc(C(=O)N2CCS(=O)(=O)CC2)cn1`, 258 ×10⁻⁶ cm/s; under `CCOc1ccc(CCNC(=O)c2cc3sccc3n2Cc2ccncc2)cc1OCC`, above 1000 ×10⁻⁶ cm/s. In turn, `COc1ccc(C2=Nn3c([n+](C)c4ccccc43)SC2)cc1` displayed an apparent permeability coefficient (Papp) below 1 ×10⁻⁶ cm/s. As for `O=C(c1ccc2c(c1)ncn2-c1ccccc1)N1CCCCC1`, the Papp is 472 ×10⁻⁶ cm/s. For the compound `CCNC(=O)Nc1ncc(-c2cc(-c3c(C)cc(OC)cc3C)nc(-c3cnccn3)n2)s1`, the Papp turned out to be 762 ×10⁻⁶ cm/s. In turn, `NC(=O)C1CCN(c2nc(-c3ccccc3-c3ccccc3)cs2)CC1` yielded a Papp of 606 ×10⁻⁶ cm/s. Under `Cc1cc(-c2nnc3n2CCCCC3)c(C)n1-c1ccc(C#N)cc1` stands 215 ×10⁻⁶ cm/s; under `CN(C)CCNC(=O)c1nc(-c2ccccc2)cc2[nH]ccc12`, 838 ×10⁻⁶ cm/s; under `Cc1cc(N=Nc2ccc(S(=O)(=O)Nc3ccccn3)cc2)c(N)cc1O`, 29.4 ×10⁻⁶ cm/s. Under `COc1ccc2c(c1)CCc1c-2n[nH]c1C(=O)N1CCc2c(nc3cc(-c4ccccc4)[nH]n3c2=O)C1` stands 15.8 ×10⁻⁶ cm/s; under `Cc1ccc(CC(=O)Nc2nc(-c3ccc4c(c3)CCN4C(=O)c3ccccc3C)c(C)s2)cc1C`, 222 ×10⁻⁶ cm/s; under `O=C(Cc1ccc(Cl)c(Cl)c1)Nc1ccc(S(=O)(=O)Nc2cccc(O)c2)cc1`, 15.6 ×10⁻⁶ cm/s. As for `Cn1c(C(=O)NCCc2ccccn2)nc2nc(-c3ccccc3)c(Cl)cc21`, the Papp is above 1000 ×10⁻⁶ cm/s. Under `O=C(CCCN1CCC(n2c(=O)[nH]c3ccccc32)CC1)c1ccc(F)cc1` stands 952 ×10⁻⁶ cm/s; under `O=C(CCS(=O)(=O)c1nc(-c2cccs2)cc(C(F)(F)F)n1)Nc1ccc(OC(F)(F)F)cc1`, 5.76 ×10⁻⁶ cm/s; under `CN(C)c1cccc(-c2cc(N3CCC(C(N)=O)CC3)ncn2)c1`, 37.8 ×10⁻⁶ cm/s. The value for `COc1ccc(OC)c(-c2nnc3n2N=C(c2c(OC)cccc2OC)CS3)c1` was 617 ×10⁻⁶ cm/s; that for `O=C(NCc1ccc(S(=O)(=O)c2cccc(C(F)(F)F)c2)cc1)c1cnc2[nH]ncc2c1` was 797 ×10⁻⁶ cm/s; that for `C[C@]12CC[C@@H]3[C@H](CCC4=CC(=O)CC[C@]43C)[C@]1(O)CC[C@@]2(O)C(=O)CO` was 30.8 ×10⁻⁶ cm/s.

`CC[C@@H](CO)NC(=O)[C@@H]1C=C2c3cccc4c3c(cn4C)C[C@H]2N(C)C1` registered a Papp of 396 ×10⁻⁶ cm/s. `CC(C)COc1ccc(-c2csc(N3CCC(C(N)=O)CC3)n2)cc1` returned a Papp of 48.4 ×10⁻⁶ cm/s. `Cc1ccc(S(=O)(=O)Nc2ccc(C(=O)Nc3nc(-c4ccccc4)cs3)cc2Cl)cc1` yielded a Papp of 23.9 ×10⁻⁶ cm/s. On to `Cc1ccc(S(=O)(=O)Nc2cnccc2C(=O)Nc2nc(-c3ccc(Oc4ccccc4)cc3)cs2)cc1`, for which the Papp was determined as 44.4 ×10⁻⁶ cm/s. This Papp is about 1.9-fold higher than that of the compound before. The compound `Fc1cccc(Nc2nc(-c3ccncc3)nc3ccccc23)c1F` showed a Papp of 799 ×10⁻⁶ cm/s. This Papp is about 18-fold higher than that of the compound before.

In turn, `Cc1ccc(OCCn2c(CCNC(=O)C3CCCCC3)nc3ccccc32)cc1` gave an apparent permeability coefficient (Papp) above 1000 ×10⁻⁶ cm/s. `Cc1ccc(N2CCN(c3cnn(-c4nc5ccccc5s4)c(=O)c3Cl)CC2C)cc1` (stereo not given) gave a Papp of 317 ×10⁻⁶ cm/s.

With `Cc1ccc(-n2c(C)cc(C3=NNC(=NC4CC4)SC3)c2C)cc1C`, the Papp is above 1000 ×10⁻⁶ cm/s. Under `COc1ccc(-n2nc(C3CCCN(C(=O)Cc4ccccn4)C3)[nH]c2=O)cc1` (stereo not given) stands 106 ×10⁻⁶ cm/s; under `CCCCCCN(CCCCCC)C(=O)Cc1c(-c2ccc(F)cc2)[nH]c2ccccc12`, 11.7 ×10⁻⁶ cm/s; under `O=C(NCc1cccnc1)c1nc(-c2ccc(Cl)nc2)c2cnccn12`, 238 ×10⁻⁶ cm/s. `COc1ccc(-c2ccc3c(N4CCOC[C@H]4C)nc(N4CCOC[C@H]4C)nc3n2)cc1CO`: the Papp came out at 182 ×10⁻⁶ cm/s. This Papp and that of the compound before are within 1.5-fold of each other. For the compound `C#C[C@]1(OC(C)=O)CC[C@H]2[C@@H]3CCC4=C/C(=N/O)CC[C@@H]4[C@H]3CC[C@@]21CC`, the apparent permeability coefficient (Papp) was found to be 858 ×10⁻⁶ cm/s. The compound `Cc1ccc(S(=O)(=O)Nc2ccc(C(=O)Nc3nc(-c4ccc(Cl)cc4)cs3)cc2)cc1` showed an apparent permeability (Papp) of 11 ×10⁻⁶ cm/s. In the case of `O=[S+]([O-])(Nc1nccs1)c1ccc(NCc2cc(Cl)cc(Br)c2O)cc1`, the Papp is 265 ×10⁻⁶ cm/s.

As for `O=C(NCCCc1ccccc1)C1CCN(c2nc(-c3ccc(Br)cc3)cs2)CC1`, the Papp was 18 ×10⁻⁶ cm/s. The value for `COc1ccc(Cn2c(=O)[nH]c3cc(C(=O)NCCCN4CCCCC4)ccc3c2=O)cc1` was 16.8 ×10⁻⁶ cm/s. Under `COc1cccc(-n2ncc3c2CCCC3NC(=O)c2ccccn2)c1` (stereo not given) stands above 1000 ×10⁻⁶ cm/s; under `CC(C)c1nc2oc3c(NCCN(C)C)ncnc3c2c2c1COC(C)(C)C2`, above 1000 ×10⁻⁶ cm/s; under `Cc1ccc(S(=O)(=O)Nc2cnccc2C(=O)NCc2ccccc2)cc1`, 27.7 ×10⁻⁶ cm/s. The value for `CCc1ccc(C2N=C(N)Nc3nc4ccccc4n32)cc1` (stereo not given) was 4.65 ×10⁻⁶ cm/s; that for `CC(=O)c1sc(NC(=O)c2ccco2)nc1-c1ccccc1` was 752 ×10⁻⁶ cm/s. Consider `Cc1nn(CCc2nc(-c3ccccc3)cs2)c2[nH]c(=O)cc(C(F)(F)F)c12`, for which the apparent permeability (Papp) amounted to 426 ×10⁻⁶ cm/s.

`O=C(Cc1ccc(Cl)c(Cl)c1)Nc1ccc(S(=O)(=O)Nc2ccon2)cc1`: the Papp was 9.17 ×10⁻⁶ cm/s.

`Cc1n[nH]c(C)c1CCc1nc2c3ccccc3nc(SCC(=O)Nc3ccc(F)cc3)n2n1` registered a Papp of 122 ×10⁻⁶ cm/s. The value for `O=C(Nc1nc(-c2ccccc2)cs1)c1ccncc1NS(=O)(=O)c1ccc(N2CCCC2=O)cc1` was 314 ×10⁻⁶ cm/s; that for `CS(=O)(=O)c1ccccc1-c1csc(N2CCC(C(N)=O)CC2)n1` was 11.9 ×10⁻⁶ cm/s; that for `COc1ccc(NC(=O)c2cc(-c3ccc[nH]3)n[nH]2)cc1OC` was 120 ×10⁻⁶ cm/s. Under `CC(=O)Nc1ccc(NC(=O)C(NS(=O)(=O)c2ccc(Br)s2)c2ccccc2)cc1` (stereo not given) stands 224 ×10⁻⁶ cm/s; under `O=C(Nc1nc(-c2ccccc2)cs1)c1ccncc1NS(=O)(=O)c1c(F)cc(F)cc1F`, 459 ×10⁻⁶ cm/s; under `Cc1cc(Nc2ccc(Br)c(C)c2)n2nc(C)nc2n1`, 874 ×10⁻⁶ cm/s. Turning to `COc1ncccc1-c1cc2c(ccn2CC2CCN([S+](C)(=O)[O-])CC2)c(N2CCOCC2)n1`, the Papp is above 1000 ×10⁻⁶ cm/s. For the compound `O=C(O)c1cn(C2CC2)c2cc(N3C[C@@H]4C[C@H]3CN4)c(F)cc2c1=O`, the Papp is below 1 ×10⁻⁶ cm/s. The value for `Cc1ccc(-c2nn(C(C)(C)C)c3ncnc(N)c23)cc1` was 825 ×10⁻⁶ cm/s; that for `Fc1cc(Nc2nc(-c3ccncc3)nc3ccccc23)ccc1-c1cccc(OC(F)F)c1` was 30.1 ×10⁻⁶ cm/s. Consider `O=C(Nc1ccc(S(=O)(=O)Nc2nccs2)cc1)c1cc(-c2ccccc2)nc2ccccc12`, for which the Papp came out at 6.3 ×10⁻⁶ cm/s. For the compound `COc1ccc(Nc2ncc(C(=O)Nc3cccc(Cl)c3)c3ccccc23)cc1`, the Papp was 67.1 ×10⁻⁶ cm/s. In the case of `COc1cc(-c2c(C#N)c(N)nc3c2c(C)nn3-c2ccc(F)cc2)ccc1O`, the Papp was above 1000 ×10⁻⁶ cm/s.

`Cc1noc(C)c1Cc1ccc(C(=O)N2CCc3c(nc4cc(-c5ccccc5)[nH]n4c3=O)C2)o1` registered a Papp of 7.01 ×10⁻⁶ cm/s. Under `Fc1ccc(-c2ccc(Nc3nc(-c4ccncc4)nc4ccccc34)cc2F)cc1` stands 93.6 ×10⁻⁶ cm/s; under `FC(F)(F)c1ccc(N2CCN(C(=S)Nc3ccccn3)CC2)cc1`, 815 ×10⁻⁶ cm/s; under `CC(C)(C)OC(=O)N[C@@H](Cc1ccc(OS(=O)(=O)c2cccc3cnccc23)cc1)C(=O)N1CCCN(C(=O)OC(C)(C)C)CC1`, 818 ×10⁻⁶ cm/s. Under `Cc1ccccc1C(=O)N1CCc2cc(-c3nc(NC(=O)c4ccc5c(c4)OCO5)sc3C)ccc21` stands 569 ×10⁻⁶ cm/s; under `O=C(Nc1ccc(S(=O)(=O)Nc2nccs2)cc1)c1ccnc2ccccc12`, 2.3 ×10⁻⁶ cm/s; under `CCCN1CNc2c(c(=O)[nH]c(=S)n2CCc2cccc(Cl)c2Cl)C1`, above 1000 ×10⁻⁶ cm/s.

For the compound `Cc1ccccc1C(=O)NC1CCN(c2ccc3nnc(C4CC4)n3n2)CC1`, the Papp was found to be 97.8 ×10⁻⁶ cm/s. With `COc1cc2c3cc1Oc1c(O)c(OC)cc4c1[C@@H](Cc1ccc(cc1)Oc1cc(ccc1O)C[C@H]3N(C)CC2)N(C)CC4`, the Papp worked out at 327 ×10⁻⁶ cm/s. As for `O=c1[nH]cnc2c1ccn2C1OC(CO)C(O)C1O` (stereo not given), the Papp amounted to 3.01 ×10⁻⁶ cm/s. `CCOc1ccc(CCNC(=O)c2cc3ccccc3n2C)cc1OCC` registered a Papp above 1000 ×10⁻⁶ cm/s. As to `CCOc1ccc(CCNC(=O)c2cc3ncccc3n2Cc2cccc(C)c2)cc1OCC`, the apparent permeability (Papp) was above 1000 ×10⁻⁶ cm/s. The value for `OC(CCN1CCCCC1)c1ccc(-c2ccccc2)cc1` (stereo not given) was above 1000 ×10⁻⁶ cm/s.

In turn, `CC1CCC(NC(=O)c2ccc3c(c2)N(Cc2ccccc2F)C(=O)c2ccccc2S3)CC1` (stereo not given) came in with an apparent permeability (Papp) of 2.7 ×10⁻⁶ cm/s. The value for `O=S(=O)(Nc1nccs1)c1ccc(NCc2ccccc2O)cc1` was 1.15 ×10⁻⁶ cm/s.

The term Papp denotes a coefficient for how fast a substance crosses the barrier.
